The source of these data is ChEMBL document CHEMBL1201862, “PubChem BioAssay data set” (2004).

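Where inhibition never reached the appropriate level, the endpoint shown equals the highest concentration tested. Otherwise, values were interpolated linearly from a five-concentration, 48-hour dose response in 96-well plates. At the GI50, growth is halved.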 Activity calls are given as the source filed them. Rule as the data show it: active = GI50 up to about 1.1 µM and inactive = higher.

Test systems include RXF 393; TK-10; UACC-62; UACC-257; HCT-15; SNB-75; OVCAR-5; LOX IMVI; HOP-62; A498; NCI-H23; NCI-H460; KM12; SK-OV-3; MDA-MB-435; ACHN; SR; BT-549; A549; Malme-3M.
Common to all, as to test: DTP human tumour cell line panel, 48 h

For `O=C(/C=C/c1ccc(O)c(O)c1)OCC(OC(=O)/C=C/c1ccc(O)c(O)c1)C(=O)O` (configuration not stated), the GI50 in the assay on RXF 393 is > 100 µM (inactive); in the assay with TK-10 it was > 100 µM (inactive); in the assay on UACC-62, > 100 µM (inactive); in the assay on UACC-257, > 100 µM (inactive); with HCT-15, 47.6 µM; in the assay on SNB-75, 63 µM (inactive). For the same molecule, the GI50 in the assay with OVCAR-5 is > 100 µM (inactive); in the assay with LOX IMVI, 92.5 µM (inactive); with HOP-62, 70.5 µM (inactive); with A498, > 100 µM (inactive); in the assay on NCI-H23, > 100 µM (inactive); in the assay on NCI-H460, 86.9 µM (inactive). Moreover, the GI50 in the assay on KM12 was > 100 µM (inactive); in the assay with SK-OV-3, > 100 µM (inactive); in the assay on MDA-MB-435, > 100 µM (inactive); in the assay on ACHN, > 100 µM (inactive); with SR it was 21.3 µM (inactive); with BT-549 it was > 100 µM (inactive). For the same molecule, the GI50 in the assay on A549 is > 100 µM (inactive).
Regarding `COC(=O)c1sc2c(Cl)c(Cl)sc2c1Cl`, the GI50 was > 100 µM (inactive) with RXF 393; 24.2 µM (inactive) in the assay on TK-10; > 100 µM (inactive) in the assay with UACC-62; > 100 µM (inactive) in the assay on UACC-257; over 100 µM in the assay on HCT-15; > 100 µM (inactive) in the assay on SNB-75. The GI50 is > 100 µM (inactive) in the assay on OVCAR-5; > 100 µM (inactive) in the assay with LOX IMVI; 30.7 µM (inactive) in the assay with HOP-62; > 100 µM (inactive) in the assay on A498; > 100 µM (inactive) with NCI-H23; > 100 µM (inactive) in the assay with Malme-3M. Further, the GI50 in the assay with NCI-H460, in the assay on KM12, with SK-OV-3, in the assay with MDA-MB-435, with ACHN and with SR was > 100 µM (inactive) in each case. Moreover, the GI50 in the assay on BT-549 and in the assay on A549 was > 100 µM (inactive) throughout.
As for `O=C(O)[C@H](CCC[C@H]1C(=O)O[C@H](c2ccccc2)[C@H](c2ccccc2)N1C(=O)OCc1ccccc1)N[C@@H](c1ccccc1)[C@H](O)c1ccccc1`, the GI50 is 22.6 µM (inactive) in the assay on RXF 393; 40.7 µM (inactive) in the assay on TK-10; 22.1 µM (inactive) in the assay on UACC-62; 39.7 µM (inactive) with UACC-257; over 100 µM with HCT-15; 17 µM (inactive) in the assay on SNB-75. Further, the GI50 with OVCAR-5 is 38.4 µM (inactive); with LOX IMVI it was 22.9 µM (inactive); in the assay with HOP-62, 19 µM (inactive); in the assay with A498, 28 µM (inactive); with NCI-H23, 28.4 µM (inactive); with Malme-3M it was 21.2 µM (inactive). Further, the GI50 was 34.5 µM (inactive) in the assay with NCI-H460; 19.7 µM (inactive) in the assay on KM12; 61.8 µM (inactive) in the assay with SK-OV-3; 20.7 µM (inactive) with MDA-MB-435; > 100 µM (inactive) with ACHN; 20.7 µM (inactive) in the assay on SR. For the same molecule, the results for the GI50 with BT-549 and with A549 were 27 µM (inactive) and > 100 µM (inactive), respectively.
Take `COC(=O)[C@H]1[C@@H](O)[C@@]2(O)c3c(OC)cc(OC)cc3O[C@@]2(c2ccc3c(c2)OCO3)[C@@H]1c1ccccc1`: the concentration for 50% growth inhibition (GI50) in the assay on RXF 393 was 0.0647 µM (active); in the assay on TK-10, 0.00684 µM (active); in the assay on UACC-62 it was 0.0222 µM (active); in the assay with UACC-257, 0.00826 µM (active); with HCT-15, under 0.005 µM; in the assay with SNB-75, 0.0146 µM (active). Besides, the GI50 with OVCAR-5 was 0.00953 µM (active); with LOX IMVI it was 0.00525 µM (active); with HOP-62, 0.00879 µM (active); with A498, 0.0144 µM (active); with NCI-H23, 0.00617 µM (active); in the assay with Malme-3M, 0.0168 µM (active). The GI50 in the assay on NCI-H460 was < 0.005 µM (active); in the assay on KM12 it was < 0.005 µM (active); in the assay with SK-OV-3, 0.00539 µM (active); in the assay with MDA-MB-435 it was 0.00603 µM (active); with ACHN, < 0.005 µM (active); with SR, < 0.005 µM (active). Moreover, the GI50 is 0.0219 µM (active) in the assay on BT-549 and < 0.005 µM (active) in the assay on A549.
On to `COc1cc2c3cc1Oc1c(O)c(OC)cc4c1[C@H](Cc1ccc(cc1)Oc1cc(ccc1O)C[C@H]3N(C)CC2)N(C)CC4`, for which the GI50 was 3.63 µM (inactive) with RXF 393; 13.6 µM (inactive) in the assay with TK-10; 17.4 µM (inactive) in the assay on UACC-62; 15 µM (inactive) in the assay with UACC-257; 9.29 µM in the assay on HCT-15; 18.8 µM (inactive) in the assay with SNB-75. Also, the GI50 in the assay with OVCAR-5 is 23.6 µM (inactive); in the assay on LOX IMVI, 4.94 µM (inactive); in the assay with HOP-62, 16.4 µM (inactive); in the assay on A498, 16.7 µM (inactive); in the assay on NCI-H23, 22.4 µM (inactive); in the assay on Malme-3M, 17.3 µM (inactive). Also, the GI50 in the assay on NCI-H460 was 8.99 µM (inactive); in the assay on KM12, 9.02 µM (inactive); with SK-OV-3 it was 25.4 µM (inactive); in the assay on MDA-MB-435, 10.7 µM (inactive); in the assay on ACHN it was 19.4 µM (inactive); with SR it was 1.63 µM (inactive). In addition, the GI50 with BT-549 is 12.9 µM (inactive); with A549 it was 15.2 µM (inactive).
On to `COc1cc2c(cc1OC)[C@@](C)(C(O)C(O)C(C)(C)O)NCC2` (some centres not stated), for which the GI50 with RXF 393 is > 100 µM (inactive); in the assay with TK-10 it was > 100 µM (inactive); with UACC-62, > 100 µM (inactive); in the assay on UACC-257, > 100 µM (inactive); with HCT-15, over 100 µM; with SNB-75 it was > 100 µM (inactive). The GI50 with OVCAR-5, with LOX IMVI, with HOP-62, in the assay with A498, in the assay on NCI-H23 and with Malme-3M was > 100 µM (inactive) each time. Also, the GI50 in the assay on SK-OV-3, with MDA-MB-435, in the assay with ACHN, with SR, with BT-549 and with A549 was > 100 µM (inactive) in each case.
Take `Cc1c(/C=N/NC(=S)Nc2ccccc2Cl)c(=O)n(-c2ccccc2)n1C`: the GI50 in the assay on RXF 393 is 16.1 µM (inactive); in the assay on TK-10, 23.4 µM (inactive); with UACC-62 it was 31 µM (inactive); in the assay with UACC-257, 34.2 µM (inactive); in the assay with HCT-15, 8.53 µM; in the assay with SNB-75, 25.9 µM (inactive). Besides, the GI50 in the assay on OVCAR-5 was > 100 µM (inactive); in the assay on LOX IMVI it was 55.3 µM (inactive); in the assay on HOP-62 it was 22.7 µM (inactive); with A498, 30.4 µM (inactive); in the assay on Malme-3M, 32.7 µM (inactive); in the assay on NCI-H460, 25.4 µM (inactive). The GI50 in the assay on KM12 is 29.3 µM (inactive); with SK-OV-3, 31 µM (inactive); with MDA-MB-435, > 100 µM (inactive); in the assay with SR it was 43.8 µM (inactive); in the assay with BT-549, 54.2 µM (inactive); with A549, 27.6 µM (inactive).
As for `CCN(CC)CCC(=O)c1ccc(C)cc1`, the GI50 in the assay with RXF 393 was 17 µM (inactive); in the assay with TK-10 it was > 10 µM (inactive); with UACC-62, 28.4 µM (inactive); in the assay with UACC-257 it was 17.2 µM (inactive); in the assay on HCT-15 it was 18.7 µM; in the assay with SNB-75, 11.5 µM (inactive). Besides, the GI50 is 17.3 µM (inactive) in the assay with OVCAR-5; 29.9 µM (inactive) with LOX IMVI; > 100 µM (inactive) in the assay on HOP-62; 16.4 µM (inactive) in the assay with A498; 21.3 µM (inactive) with NCI-H23; 23 µM (inactive) with Malme-3M. For the same molecule, the GI50 in the assay with NCI-H460 was > 100 µM (inactive); in the assay with KM12, > 10 µM (inactive); in the assay with SK-OV-3, > 100 µM (inactive); in the assay with MDA-MB-435, 19 µM (inactive); with ACHN, 20.6 µM (inactive); in the assay on SR, 28 µM (inactive). In addition, the GI50 is 22.4 µM (inactive) in the assay on BT-549 and > 100 µM (inactive) with A549.
Regarding `CCC(NC1=NCCO1)c1cccs1` (configuration not stated), the GI50 in the assay on RXF 393 was 19 µM (inactive); with TK-10, 15.8 µM (inactive); with UACC-62 it was 16 µM (inactive); in the assay with UACC-257, 18 µM (inactive); in the assay with HCT-15, 15.6 µM; in the assay on SNB-75 it was 3.24 µM (inactive). Moreover, the GI50 in the assay on OVCAR-5 is 17 µM (inactive); with LOX IMVI, 23.7 µM (inactive); with A498, 22.3 µM (inactive); in the assay on NCI-H23 it was 16.9 µM (inactive); in the assay on Malme-3M it was 13 µM (inactive); in the assay on NCI-H460, 15.7 µM (inactive). The GI50 in the assay on KM12 is 18 µM (inactive); in the assay with SK-OV-3, 13.8 µM (inactive); in the assay with MDA-MB-435 it was 14.5 µM (inactive); in the assay with ACHN, 15.9 µM (inactive); in the assay with SR, 25.8 µM (inactive); with BT-549, 20.1 µM (inactive). In addition, the GI50 in the assay on A549 is 14.1 µM (inactive).
In the case of `CC(=O)Nc1ncc2c(n1)-c1ccccc1OC2`, the GI50 in the assay on RXF 393 was > 100 µM (inactive); with TK-10, > 100 µM (inactive); in the assay on UACC-62, > 100 µM (inactive); in the assay with UACC-257, > 100 µM (inactive); in the assay with HCT-15 it was over 100 µM; in the assay with SNB-75, 65.2 µM (inactive). The GI50 with OVCAR-5, with LOX IMVI, in the assay with A498, in the assay on NCI-H23, in the assay on NCI-H460 and in the assay on KM12 was > 100 µM (inactive) throughout. The GI50 was > 100 µM (inactive) in the assay on SK-OV-3; > 100 µM (inactive) in the assay with MDA-MB-435; 54.3 µM (inactive) with ACHN; > 100 µM (inactive) with SR; > 100 µM (inactive) with BT-549; > 100 µM (inactive) in the assay with A549.
